# According to US12479850B2, “Compound having Axl and c-Met kinase inhibitory activity, preparation thereof and application thereof” (Shanghai Institute of Materia Medica, Chinese Academy of …, priority 2019, dated 2025):
# pIC50: −log10 of the molar value.
# Experiments:
# [1] = molecular target: T1, Axl kinase domain recombinant protein (Homo sapiens, UniProt P30530); experiment: ELISA kinase activity assay, Axl
# T1 sequence (P30530 536-807 limits assumed): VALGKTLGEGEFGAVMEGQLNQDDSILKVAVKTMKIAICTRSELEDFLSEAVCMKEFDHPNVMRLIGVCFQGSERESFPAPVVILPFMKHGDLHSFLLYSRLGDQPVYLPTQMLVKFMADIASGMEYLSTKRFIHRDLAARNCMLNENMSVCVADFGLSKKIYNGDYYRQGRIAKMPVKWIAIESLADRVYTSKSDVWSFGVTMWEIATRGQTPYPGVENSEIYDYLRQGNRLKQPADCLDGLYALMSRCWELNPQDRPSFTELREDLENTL
# [2] = molecular target: c-Met kinase domain recombinant protein (Homo sapiens, UniProt P08581); experiment: ELISA kinase activity assay, c-Met
# Chain of c-Met kinase domain recombinant protein (P08581 1078-1345 limits assumed): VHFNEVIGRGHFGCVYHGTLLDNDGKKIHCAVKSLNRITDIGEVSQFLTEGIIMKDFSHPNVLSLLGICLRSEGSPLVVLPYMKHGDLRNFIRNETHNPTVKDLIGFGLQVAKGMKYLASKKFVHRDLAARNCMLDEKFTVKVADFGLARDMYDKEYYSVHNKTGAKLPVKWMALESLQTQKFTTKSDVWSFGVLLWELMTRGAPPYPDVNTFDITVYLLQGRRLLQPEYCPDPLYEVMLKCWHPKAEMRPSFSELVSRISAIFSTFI
pIC50 [1],pIC50 [2],SMILES
> 8.00,> 8.00,"COCCn1cc(C(=O)Nc2ccc(Oc3ccnc(-c4cnn(C)c4)c3)c(F)c2)c(=O)n(-c2ccc(F)cc2)c1=O [No. 10, N-(3-fluoro-4-((2-(1-methyl-1H-pyrazol-4-yl)pyridin-4-yl)oxy)phenyl)-3-(4-fluorophenyl)-1-(2-methoxyethyl)-2,4-dioxo-1,2,3,4-tetrahydropyrimidin-5-carboxamide]"
> 8.00,> 8.00,"Cn1cc(-c2cc(Oc3ccc(NC(=O)c4cn(C5CCCC5)c(=O)n(-c5ccc(F)cc5)c4=O)cc3F)ccn2)cn1 [No. 11, 1-cyclopentyl-N-(3-fluoro-4-((2-(1-methyl-1H-pyrazol-4-yl)pyridin-4-yl)oxy)phenyl)-3-(4-fluorophenyl)-2,4-dioxo-1,2,3,4-tetrahydropyrimidin-5-carboxamide]"
< 7.00,< 7.00,"Cn1cc(-c2cc(Oc3ccc(NC(=O)c4cn(-c5ccc(F)cc5)c(=O)n(-c5ccc(F)cc5)c4=O)cc3F)ccn2)cn1 [No. 12, N-(3-fluoro-4-((2-(1-methyl-1H-pyrazol-4-yl)pyridin-4-yl)oxy)phenyl)-1,3-bis(4-fluorophenyl)-2,4-dioxo-1,2,3,4-tetrahydropyrimidin-5-carboxamide]"
7.00 to 8.00,7.00 to 8.00,"CC(C)n1cc(C(=O)Nc2ccc(Oc3ccnc(-c4cnn(C)c4)c3)c(F)c2)c(=O)n(-c2ccccc2)c1=O [No. 13, N-(3-fluoro-4-((2-(1-methyl-1H-pyrazol-4-yl)pyridin-4-yl)oxy)phenyl)-1-isopropyl-2,4-dioxo-3-phenyl-1,2,3,4-tetrahydropyrimidin-5-carboxamide]"
> 8.00,> 8.00,"CC(C)n1cc(C(=O)Nc2ccc(Oc3ccnc(-c4cnn(C)c4)c3)c(F)c2)c(=O)n(-c2ccc(Cl)cc2)c1=O [No. 14, 3-(4-chlorophenyl)-N-(3-fluoro-4-((2-(1-methyl-1H-pyrazol-4-yl)pyridin-4-yl)oxy)phenyl)-1-isopropyl-2,4-dioxo-1,2,3,4-tetrahydropyrimidin-5-carboxamide]"
> 8.00,> 8.00,"Cc1ccc(-n2c(=O)c(C(=O)Nc3ccc(Oc4ccnc(-c5cnn(C)c5)c4)c(F)c3)cn(C(C)C)c2=O)cc1 [No. 15, N-(3-fluoro-4-((2-(1-methyl-1H-pyrazol-4-yl)pyridin-4-yl)oxy)phenyl)-1-isopropyl-2,4-dioxo-3-p-tolyl-1,2,3,4-tetrahydropyrimidin-5-carboxamide]"
< 7.00,< 7.00,"COc1ccc(-n2c(=O)c(C(=O)Nc3ccc(Oc4ccnc(-c5cnn(C)c5)c4)c(F)c3)cn(C(C)C)c2=O)cc1 [No. 16, N-(3-fluoro-4-((2-(1-methyl-1H-pyrazol-4-yl)pyridin-4-yl)oxy)phenyl)-1-isopropyl-3-(4-methoxyphenyl)-2,4-dioxo-1,2,3,4-tetrahydropyrimidin-5-carboxamide]"
> 8.00,> 8.00,"CC(C)n1cc(C(=O)Nc2ccc(Oc3ccnc(-c4cnn(C)c4)c3)c(F)c2)c(=O)n(-c2cccc(F)c2)c1=O [No. 17, N-(3-fluoro-4-((2-(1-methyl-1H-pyrazol-4-yl)pyridin-4-yl)oxy)phenyl)-3-(3-fluorophenyl)-1-isopropyl-2,4-dioxo-1,2,3,4-tetrahydropyrimidin-5-carboxamide]"
> 8.00,7.00 to 8.00,"CC(C)n1cc(C(=O)Nc2ccc(Oc3ccnc(-c4cnn(C)c4)c3)c(F)c2)c(=O)n(-c2ccccc2F)c1=O [No. 18, N-(3-fluoro-4-((2-(1-methyl-1H-pyrazol-4-yl)pyridin-4-yl)oxy)phenyl)-3-(2-fluorophenyl)-1-isopropyl-2,4-dioxo-1,2,3,4-tetrahydropyrimidin-5-carboxamide]"
> 8.00,> 8.00,"CC(C)n1cc(C(=O)Nc2ccc(Oc3ccnc(-c4cnn(C)c4)c3)c(F)c2)c(=O)n(-c2ccc(F)c(F)c2)c1=O [No. 19, 3-(3,4-difluorophenyl)-N-(3-fluoro-4-((2-(1-methyl-1H-pyrazol-4-yl)pyridin-4-yl)oxy)phenyl)-1-isopropyl-2,4-dioxo-1,2,3,4-tetrahydropyrimidin-5-carboxamide]"
< 7.00,< 7.00,"CC(C)n1cc(C(=O)Nc2ccc(Oc3ccnc(-c4cnn(C)c4)c3)c(F)c2)c(=O)n(-c2ccncc2)c1=O [No. 20, N-(3-fluoro-4-((2-(1-methyl-1H-pyrazol-4-yl)pyridin-4-yl)oxy)phenyl)-1-isopropyl-2,4-dioxo-3-(pyridin-4-yl)-1,2,3,4-tetrahydropyrimidin-5-carboxamide]"
7.00 to 8.00,< 7.00,"CC(C)n1cc(C(=O)Nc2ccc(Oc3ccnc(-c4cnn(C)c4)c3)c(F)c2)c(=O)n(-c2cnn(C)c2)c1=O [No. 21, N-(3-fluoro-4-((2-(1-methyl-1H-pyrazol-4-yl)pyridin-4-yl)oxy)phenyl)-1-isopropyl-3-(1-methyl-1H-pyrazol-4-yl)-2,4-dioxo-1,2,3,4-tetrahydropyrimidin-5-carboxamide]"
7.00 to 8.00,< 7.00,"CC(C)n1cc(C(=O)Nc2ccc(Oc3ccnc(-c4cnn(C)c4)c3)c(F)c2)c(=O)n([C@H]2CC[C@H](C)CC2)c1=O [No. 22, N-(3-fluoro-4-((2-(1-methyl-1H-pyrazol-4-yl)pyridin-4-yl)oxy)phenyl)-1-isopropyl-3-((1R,4R)-4-methylcyclohexyl)-2,4-dioxo-1,2,3,4-tetrahydropyrimidin-5-carboxamide]"
7.00 to 8.00,7.00 to 8.00,"CC(C)n1nc(C(=O)Nc2ccc(Oc3ccnc(-c4cnn(C)c4)c3)cc2)c(=O)n(-c2ccc(F)cc2)c1=O [No. 23, 4-(4-fluorophenyl)-2-isopropyl-N-(4-((2-(1-methyl-1H-pyrazol-4-yl)pyridin-4-yl)oxy)phenyl)-3,5-dioxo-2,3,4,5-tetrahydro-1,2,4-triazin-6-carboxamide]"
> 8.00,7.00 to 8.00,"CC(C)n1nc(C(=O)Nc2ccc(Oc3ccnc(-c4cnn(C)c4)c3)c(F)c2)c(=O)n(-c2ccc(F)cc2)c1=O [No. 24, N-(3-fluoro-4-((2-(1-methyl-1H-pyrazol-4-yl)pyridin-4-yl)oxy)phenyl)-4-(4-fluorophenyl)-2-isopropyl-3,5-dioxo-2,3,4,5-tetrahydro-1,2,4-triazine-6-carboxamide]"
> 8.00,7.00 to 8.00,"COc1ccc(-c2cnc(N)c(-c3ccc(NC(=O)c4cn(C(C)C)c(=O)n(-c5ccc(F)cc5)c4=O)cc3F)c2)cc1OC [No. 37, N-(4-(2-amino-5-(3,4-dimethoxyphenyl)pyridin-3-yl)-3-fluorophenyl)-3-(4-fluorophenyl)-1-isopropyl-2,4-dioxo-1,2,3,4-tetrahydropyrimidin-5-carboxamide]"
> 8.00,> 8.00,"CC(C)n1cc(C(=O)Nc2ccc(-c3cc(-c4cnn(C)c4)cnc3N)c(F)c2)c(=O)n(-c2ccc(F)cc2)c1=O [No. 38, N-(4-(2-amino-5-(1-methyl-1H-pyrazol-4-yl)pyridin-3-yl)-3-fluorophenyl)-3-(4-fluorophenyl)-1-isopropyl-2,4-dioxo-1,2,3,4-tetrahydropyrimidin-5-carboxamide]"
> 8.00,7.00 to 8.00,"COc1cc(-c2cnc(N)c(-c3ccc(NC(=O)c4cn(C(C)C)c(=O)n(-c5ccc(F)cc5)c4=O)cc3F)c2)ccc1OC[C@H]1COCCO1 [No. 39, (R)—N-(4-(5-(4-((1,4-dioxan-2-yl)methoxy)-3-methoxyphenyl)-2-aminopyridin-3-yl)-3-fluorophenyl)-3-(4-fluorophenyl)-1-isopropyl-2,4-dioxo-1,2,3,4-tetrahydropyrimidin-5-carboxamide]"
< 7.00,< 7.00,"CC(C)n1cc(C(=O)Nc2ccc(-c3cc(-c4cn[nH]c4)cnc3N)c(F)c2)c(=O)n(-c2ccc(F)cc2)c1=O [No. 40, N-(4-(2-amino-5-(1H-pyrazol-4-yl)pyridin-3-yl)-3-fluorophenyl)-3-(4-fluorophenyl)-1-isopropyl-2,4-dioxo-1,2,3,4-tetrahydropyrimidin-5-carboxamide]"
> 8.00,> 8.00,CC(C)n1cc(C(=O)Nc2ccc(Oc3ccnc4[nH]cc(Br)c34)c(F)c2)c(=O)n(-c2ccc(F)cc2)c1=O [No. 42]
> 8.00,7.00 to 8.00,"CC(C)n1cc(C(=O)Nc2ccc(Oc3ncnc4[nH]cc(-c5ccccc5)c34)c(F)c2)c(=O)n(-c2ccc(F)cc2)c1=O [No. 44, N-(3-fluoro-4-((5-phenyl-7H-pyrrolo[2,3-d]pyrimidin-4-yl)oxy)phenyl)-3-(4-fluorophenyl)-1-isopropyl-2,4-dioxo-1,2,3,4-tetrahydropyrimidin-5-carboxamide]"
7.00 to 8.00,< 7.00,"CC(C)n1cc(C(=O)Nc2ccc(Oc3ccnc4c3CC(=O)N4)c(F)c2)c(=O)n(-c2ccc(F)cc2)c1=O [No. 45, N-(3-fluoro-4-((2-oxo-2,3-dihydro-1H-pyrrolo[2,3-b]pyridin-4-yl)oxyl)phenyl)-3-(4-fluorophenyl)-1-isopropyl-2,4-dioxo-1,2,3,4-tetrahydropyrimidin-5-carboxamide]"
> 8.00,7.00 to 8.00,"CC(C)n1cc(C(=O)Nc2ccc(Oc3ccnc4c3OCCN4)cc2)c(=O)n(-c2ccc(F)cc2)c1=O [No. 48, N-(4-((3,4-dihydro-2H-pyridino[3,2-b][1,4]oxazin-8-yl)oxy)phenyl)-3-(4-fluorophenyl)-1-isopropyl-2,4-dioxo-1,2,3,4-tetrahydropyrimidin-5-carboxamide]"
> 8.00,> 8.00,"CC(C)n1cc(C(=O)Nc2ccc(Oc3ccnc4c3CCN4)c(F)c2)c(=O)n(-c2ccc(F)cc2)c1=O [No. 51, N-(4-((2,3-dihydro-1H-pyrrolo[2,3-b]pyridin-4-yl)oxy)-3-fluorophenyl)-3-(4-fluorophenyl)-1-isopropyl-2,4-dioxo-1,2,3,4-tetrahydropyrimidin-5-carboxamide]"
